Assay results taken from PMC9732823, “Discovery of Dual Aβ/Tau Inhibitors and Evaluation of Their Therapeutic Effect on a Drosophila Model of Alzheimer’s Disease” (ACS Chemical Neuroscience, 2022).

Key:
PAMPA-BBB assay = conditions: for Papp: pH 7.4; for BBB permeability prediction: PAMPA-BBB
Description: Thus, to reduce attrition in the development process, the evaluation of BBB penetration at a very early drug discovery stage is of crucial importance. In light of this, the ability of the previously selected compounds to cross the BBB was predicted by a parallel artificial membrane permeability assay (PAMPA)-BBB,[41] a high-throughput technique widely used as an indicator of a molecule’s passive diffusion through the BBB. Six commercially available drugs were used to validate the assay.
PAMPA (the parallel artificial membrane permeability assay) is a high-throughput screening tool applicable for the prediction of the passive transport of potential drugs across the BBB.[41] In this study, it has been used as a non-cell-based in vitro assay carried out in a coated 96-well membrane filter. The filter membrane of the donor plate was coated with PBL (Polar Brain Lipid, Avanti) in dodecane (4 μL of 20 mg/mL PBL in dodecane) and the acceptor well was filled with 300 μL of phosphate buffer saline, (PBS pH 7.4; VA). The tested compounds were dissolved first in DMSO and then diluted with PBS pH 7.4 to reach the final concentrations of 50–500 μM in the donor well. […] Then, 300 μL of the donor solution (VD) was added to the donor wells and the donor filter plate was carefully put on the acceptor plate so that the coated membrane was “in touch” with both donor solution and acceptor buffer. In principle, the test compound diffuses from the donor well through the polar brain lipid membrane (area = 0.28 cm^2) to the acceptor well. The concentrations of the tested compound in both donor and the acceptor wells were assessed after 3, 4, 5, and 6 h of incubation in quadruplicate using a UV plate reader, Synergy HT (Biotek) at the maximum absorption wavelength of each compound (n=3). In addition to that, solution of the theoretical compound concentration, simulating the equilibrium state established if the membrane were ideally permeable, was prepared and assessed as well. The concentrations of the compounds in the donor and acceptor wells and the equilibrium concentration were calculated from the standard curve and expressed as the permeability (Pe) according to the equation[41] [drawing 1] where [drawing 2]

[1] = tested on: cerebellar granule neurons (CGNs); test: Neurotoxicity on primary cultures of cerebellar granule neurons (nuclei counting after Hoechst staining); conditions: differentiated CGNs, 24 h, percentage of healthy nuclei on total nuclei, mean ± SEM of three experiments
Aβ42 = target: T1, Aβ42 (Homo sapiens, UniProt P05067); test: Inhibition of Aβ42 aggregation in intact E. coli cells overexpressing Aβ42 (ThS fluorescence); assay type: cell-based, Escherichia coli; conditions: for % inhibition Aβ42 aggregation @ 10 μM: intact E. coli cells, compound 10 μM, mean ± SEM of four independent experiments; for inhibition at 10 µM: read-out: % inhibition Aβ42 aggregation @ 10 μM, intact E. coli cells, compound 10 μM, mean ± SEM of four independent experiments
T1 construct: expressed in transfected cells; host or cells: Escherichia coli BL21 (DE3), pET28a
Description: (§1) As it would have been labor-intensive and expensive to screen such a number of compounds in two separate antiaggregating studies using recombinant Aβ and Tau, we turned our attention to a simple model of protein aggregation, namely, the intact Escherichia coli (E. coli) cells overexpressing Aβ42 and Tau proteins.[28],[29] Building on the fact that inclusion bodies produced by overexpression of these proteins in E. coli mainly consist of fibrillar aggregates, this simple screening method uses bacteria as an in vivo reservoir for tracking the inhibition of amyloid-type protein aggregation in real time, using the amyloid dye thioflavin S (ThS). Of note, this screening has already been used for the evaluation of libraries of antiaggregating compounds.[28]−[38]
Escherichia coli competent cells BL21 (DE3) were transformed with the pET28a vector (Novagen, Inc., Madison, WI) carrying the DNA sequence of Aβ42. Because of the addition of the initiation codon ATG in front of both genes, the overexpressed peptide contains an additional methionine residue at its N terminus. For overnight culture preparation, an amount of 10 mL of M9 minimal medium containing 50 μg·mL^–1 kanamycin was inoculated with a colony of BL21 (DE3) bearing the plasmid to be expressed at 37 °C. For expression of the Aβ42 peptide, the required volume of overnight culture to obtain 1:500 dilution was added into fresh M9 minimal medium containing 50 μg·mL^–1 kanamycin and 250 μM ThS. The bacterial culture was grown at 37 °C and 250 rpm. When the cell density reached ABS600 nm = 0.6, an amount of 980 μL of culture was transferred into Eppendorf tubes of 1.5 mL with 10 μL of each compound to be tested in DMSO and 10 μL of isopropyl 1-thio-β-D-galactopyranoside (IPTG) at 100 mM. The final concentration of the drug was fixed at 10 μM. The samples were grown overnight at 37 °C and 1400 rpm using a thermomixer (Eppendorf, Hamburg, Germany). As the control of the amyloid presence (maximal amyloid presence), the same amount of DMSO without the drug was added to the sample. In parallel, noninduced samples (in the absence of IPTG) were also prepared and used as controls of the non-amyloid presence. In addition, the absorbance at 600 nm of the samples was checked to assess the potential intrinsic toxicity of the compounds and to confirm the correct bacterial growth.
(§2) ThS (T1892) and other chemical reagents were purchased from Sigma (St. Louis, MO). ThS stock solution (25 mM) was prepared in double-distilled water purified through a Milli-Q system (Millipore). For the fluorescence assay, the ThS spectra were measured on an AMINCO-Bowman series 2 luminescence spectrophotometer (Aminco-Bowman AB2, SLM Aminco, Rochester, NY) from 460 to 600 nm at 25 °C using an excitation wavelength of 440 nm and slit widths of 4 nm. The emission at 485 nm (fluorescence peak of ThS in the presence of amyloids) was recorded. To normalize the ThS fluorescence as a function of the bacterial concentration, ABS600nm was obtained using a Shimadzu UV-2401 PC UV–Vis spectrophotometer (Shimadzu, Japan). Note that the fluorescence normalization was carried out considering as 100% the ThS fluorescence of the bacterial cells expressing the peptide or protein in the absence of the drug and 0% the ThS fluorescence of the bacterial cells nonexpressing the peptide or protein.

[2] = Compound stability in the PAMPA buffer solution; assay type: in vitro ADME; conditions: after 6h, donor and acceptor wells
Description: Table S1. Prediction of BBB penetration of the studied compounds expressed as Pe ± SEM (n=3)

Tau protein = target: T2, Tau protein (Homo sapiens, UniProt P10636); test: Inhibition of Tau aggregation in intact E. coli cells overexpressing Tau (ThS fluorescence); assay type: cell-based, Escherichia coli; conditions: for % inhibition Tau aggregation @ 10 μM: intact E. coli cells, compound 10 μM, mean ± SEM of four independent experiments; for inhibition at 10 µM: read-out: % inhibition Tau aggregation @ 10 μM, intact E. coli cells, compound 10 μM, mean ± SEM of four independent experiments
T2 construct: expressed in transfected cells; host or cells: Escherichia coli BL21 (DE3) with pTARA and pRKT42
Description: as §1
E. coli BL21 (DE3) competent cells were transformed with pTARA containing the RNA-polymerase gen of the T7 phage (T7RP) under the control of the promoter PBAD. E. coli BL21 (DE3) with pTARA competent cells were transformed with the pRKT42 vector encoding four repeats of Tau protein in two inserts. For overnight culture preparation, 10 mL of M9 medium containing 0.5% of glucose, 100 μg·mL^–1 ampicillin, and 12.5 μg·mL^–1 chloramphenicol were inoculated with a colony of BL21 (DE3) bearing the plasmids to be expressed at 37 °C. For expression of Tau protein, the required volume of overnight culture to obtain 1:500 dilution was added to fresh M9 minimal medium containing 0.5% of glucose, 50 μg·mL^–1 ampicillin, 12.5 μg·mL^–1 chloramphenicol, and 25 μM ThS. The bacterial culture was grown at 37 °C and 250 rpm. When the cell density reached ABS600 nm= 0.6, an amount of 980 μL of culture was transferred into Eppendorf tubes of 1.5 mL with 10 μL of each compound to be tested in DMSO and 10 μL of arabinose at 25%. The final concentration of the drug was fixed at 10 μM. The samples were grown overnight at 37 °C and 1400 rpm using a thermomixer (Eppendorf, Hamburg, Germany). As the control of maximal amyloid presence, the same amount of DMSO without the drug was added to the sample. In parallel, noninduced samples (in the absence of arabinose) were also prepared and used as controls for the amyloid absence. In addition, the absorbance at 600 nm of the samples was checked to assess the potential intrinsic toxicity of the compounds and to confirm the correct bacterial growth.
as §2

[3] = PAMPA-BBB penetration estimation

T1 sequence (P05067 672-713 limits assumed): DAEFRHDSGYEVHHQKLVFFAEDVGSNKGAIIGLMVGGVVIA
T2 sequence (P10636 1-441 isoform P10636-8): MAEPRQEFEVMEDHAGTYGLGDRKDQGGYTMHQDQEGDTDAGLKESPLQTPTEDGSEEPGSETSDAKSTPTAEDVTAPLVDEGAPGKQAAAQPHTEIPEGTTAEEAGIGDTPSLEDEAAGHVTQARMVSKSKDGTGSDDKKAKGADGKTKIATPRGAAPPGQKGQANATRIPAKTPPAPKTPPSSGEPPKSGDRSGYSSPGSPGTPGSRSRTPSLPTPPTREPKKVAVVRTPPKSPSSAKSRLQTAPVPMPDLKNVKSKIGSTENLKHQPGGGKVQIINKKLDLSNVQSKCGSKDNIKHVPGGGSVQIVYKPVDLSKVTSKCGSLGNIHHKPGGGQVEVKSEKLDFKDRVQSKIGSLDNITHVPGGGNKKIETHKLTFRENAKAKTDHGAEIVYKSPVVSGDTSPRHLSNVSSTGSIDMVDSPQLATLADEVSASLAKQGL

Row | Structure (SMILES) | CNS (+/-) (PAMPA-BBB assay; [3]) | % survival neurotoxicity @ 10 μM [1] | % inhibition Aβ42 aggregation @ 10 μM (Aβ42) | inhibition at 10 µM (Aβ42) | degradation in the PAMPA buffer solution [2] | % inhibition Tau aggregation @ 10 μM (Tau protein) | inhibition at 10 µM (Tau protein) | Papp (PAMPA-BBB assay; PAMPA) | BBB permeability prediction (PAMPA-BBB assay) | CNS (+/-) (PAMPA-BBB assay; PAMPA)
1 | CO/N=C(\C(=O)N[C@@H]1C(=O)N2C(C(=O)O)=C(COC(N)=O)CS[C@H]12)c1ccco1 [Cefuroxime, reference compound] | CNS - (CNS - (low BBB permeation predicted): Pe (×10-6 cm s-1) < 2.0) |  |  |  |  |  |  |  |  | 
2 | CCOC(=O)CN1C(=O)S/C(=C\c2ccc(/C=C3\SC(=O)N(CC(=O)OCC)C3=O)cc2)C1=O [Compound 7, Diethyl 2,2′-((5Z,5′Z)-(1,4-phenylenebis(methanylylidene))bis(2,4-dioxothiazolidin-3-yl-5-ylidene))diacetate] | CNS + (CNS + (high BBB permeation predicted): Pe (×10-6 cm s-1) > 4.0) | 90.1 ± 2.1% | 40.7 ± 4.4% | 40% | < 20% | 30.6 ± 3.6% | 30% | 11.4 ± 0.49 ×10⁻⁶ cm/s | predicted to passively diffuse across the BBB | 
3 | CCOC(=O)CN1C(=O)S/C(=C\c2ccc3[nH]c4ccc(/C=C5\SC(=O)N(CC(=O)OCC)C5=O)cc4c3c2)C1=O [Compound 10, Diethyl 2,2′-((5Z,5′Z)-((9H-carbazole-3,6-diyl)bis(methanylylidene))bis(2,4-dioxothiazolidin-3-yl-5-ylidene))diacetate] | CNS + (CNS + (high BBB permeation predicted): Pe (×10-6 cm s-1) > 4.0) | 84.2 ± 6.3% | 31.9 ± 3.0% | 30 to 40% | < 20% | 37.7 ± 4.1% | 30 to 40% | 5.79 ± 1.16 ×10⁻⁶ cm/s | predicted to passively diffuse across the BBB | 
4 | O=C(O)CN1C(=O)S/C(=C\c2ccc3[nH]c4ccc(/C=C5\SC(=O)N(CC(=O)O)C5=O)cc4c3c2)C1=O [Compound 16, 2,2′-((5Z,5′Z)-((9H^–Carbazole-3,6-diyl)bis(methanylylidene))bis(2,4-dioxothiazolidin-3-yl-5-ylidene))diacetic acid] |  | 90.0 ± 2.8% | 32.1 ± 3.1% | 30 to 40% |  | 37.9 ± 3.5% | 30 to 40% | 0.55 ± 0.12 ×10⁻⁶ cm/s |  | 
5 | CC1(C)c2cc(/C=C3\SC(=O)N(CC(=O)O)C3=O)ccc2-c2ccc(/C=C3\SC(=O)N(CC(=O)O)C3=O)cc21 [Compound 17, 2,2′-((5Z,5′Z)-((9,9-Dimethyl-9H-fluorene-2,7-diyl)bis(methanylylidene))bis(2,4-dioxothiazolidin-3-yl-5-ylidene))diacetic acid] |  | 89.3 ± 2.3% |  | > 50% |  |  | > 50% | 0.88 ± 0.2 ×10⁻⁶ cm/s |  | 
6 | CN(C)CCN1C(=O)S/C(=C\c2ccc(/C=C3\SC(=O)N(CCN(C)C)C3=O)cc2)C1=O [Compound 19, (5Z,5′Z)-5,5′-(1,4-Phenylenebis(methanylylidene))bis(3-(2-(dimethylamino)ethyl)thiazolidine-2,4-dione)] |  | 89.4 ± 2.0% |  | 8.1 ± 4.4% |  |  | 19.4 ± 3.6% |  |  | 
7 | CN(C)CCN1C(=O)S/C(=C\c2ccc(-c3ccc(/C=C4\SC(=O)N(CCN(C)C)C4=O)cc3)cc2)C1=O [Compound 20, (5Z,5′Z)-5,5′-([1,1′-Biphenyl]-4,4′-diylbis(methanylylidene))bis(3-(2-(dimethylamino)ethyl)thiazolidine-2,4-dione)] |  | 91.1 ± 0.9% |  | 26.4 ± 4.2% |  |  | 34.9 ± 1.9% |  |  | 
8 | CN(C)CCN1C(=O)S/C(=C\c2ccc(Cc3ccc(/C=C4\SC(=O)N(CCN(C)C)C4=O)cc3)cc2)C1=O [Compound 21, (5Z,5′Z)-5,5′-((Methylenebis(4,1-phenylene))bis(methanylylidene))bis(3-(2-(dimethylamino)ethyl)thiazolidine-2,4-dione)] |  | 91.1 ± 1.5% |  | 16.1 ± 3.8% |  |  | 38.7 ± 3.3% |  |  | 
9 | CN(C)CCN1C(=O)S/C(=C\c2ccc(-c3ccc(/C=C4\SC(=O)N(CCN(C)C)C4=O)s3)s2)C1=O [Compound 24, (5Z,5′Z)-5,5′-([2,2′-Bithiophene]-5,5′-diylbis(methanylylidene))bis(3-(2-(dimethylamino)ethyl)thiazolidine-2,4-dione)] |  | 88.8 ± 2.3% |  | 20.3 ± 4.8% |  |  | 17.3 ± 4.5% |  |  | 
10 | CCN(C)C(=O)Oc1cccc([C@H](C)N(C)C)c1 [Rivastigmine, reference compound] |  |  |  |  |  |  |  |  |  | CNS + (key: CNS + (high BBB permeation predicted): Pe (×10-6 cm s-1) > 4.0; CNS - (low BBB permeation predicted): Pe (×10-6 cm s-1) < 2.0; CNS +/- (uncertain BBB permeation): Pe (×10-6 cm s-1) from 4.0 to 2.0)
